Test results published in US20090142370A1, “Method for preventing skin-cellular aging by using green algae extract and cosmetic composition containing green algae extract” (priority 2007, published 2009).

Experiments:
Format in all cases: cell-based
MMP [1] = experiment: PMA-induced MMP production in fibroblasts, quantified (FIG. 1); conditions: 5-hour incubation, control about 25, PMA alone about 70 ng/mL
Description: (§1) The experiments are conducted under two kinds of conditions, wherein one uses phorbol 12-myristate 13-acetate (PMA) to induce skin-cells to produce MMP while the other uses UVB to induce skin-cells to produce MMP and the inhibitory effects of the green algae extract of the present invention on MMP produced under both conditions are tested.
As known by those skilled in the art, PMA is an activator of protein kinase C (PKC) in fibroblasts, and PKC is an activator of MMP. Further, unduly activated MMP can break collagens as well as elastins in fibroblasts and in turn lead to aged skin. In the experiment shown in FIG. 1, Rectangle (1) belongs to a control group; Rectangle (2) belongs to a comparison group; and Rectangles (3), (4), (5) and (6) belong to an experimental group. A 5-hour incubation is conducted in each of the groups.

MMP [2] = experiment: PMA-induced MMP in fibroblasts, Western blotting (FIG. 2); conditions: 100 nM PMA + 0.4 nM GM
Excerpt: The images in the upper picture represent MMP expressions while the images in the lower picture are provided as a house keeping gene expressed protein.

MMP3 = experiment: PMA-induced gene expression in fibroblasts, RT-PCR (FIG. 4); conditions: 100 nM PMA + 0.4 nM GM
Excerpt: (§2) The […] inhibitor proteins TIMP1 and TIMP3 exist in fibroblasts to counterbalance metalloproteinases MMP1 and MMP3.

TIMP1 = experiment: as above; conditions: 100 nM PMA + 0.4 nM GM
Excerpt: as §2

TIMP3 = experiment: as above; conditions: 100 nM PMA + 0.4 nM GM
Excerpt: as §2

MMP [3] = experiment: UVB-induced MMP in fibroblasts, quantified (FIG. 5); conditions: no UV about 3.5, UV alone about 6.0 ng/mL
Description: as §1

## CNC(=O)[C@H](Cc1c[nH]c2ccccc12)NC(=O)[C@@H](CC(=O)NO)CC(C)C [GM]
MMP [1]; 100 nM PMA + 0.4 nM GM
  average content of MMP: about 50 ng/mL
MMP [2]
  MMP activity (Western blot) compared with PMA alone: slightly inhibits
MMP3
  MMP3 mRNA expression (RT-PCR) compared with PMA alone: less
TIMP1
  TIMP1 genetic expression (RT-PCR) compared with PMA alone: fails to significantly enhance
TIMP3
  TIMP3 genetic expression (RT-PCR) compared with PMA alone: fails to significantly enhance

## Vitamin E
MMP [3]; 25 uM Vitamin E added before 1.5 hours UV
  average content of MMP: 6.0 ng/mL

## O=C1O[C@H]([C@@H](O)CO)C(O)=C1O [Vitamin C]
MMP [1]; 100 nM PMA + 0.15 nM Vitamin C
  average content of MMP: about 60 ng/mL
MMP [3]; 0.15 mM Vitamin C added before 1.5 hours UV
  average content of MMP: 9.0 ng/mL
